# From US7605280B2, “Anthraquinone and its derivatives” (Biostatus Limited, priority 1998, dated 2009)
# Test system: viable HL60 cells
# Test: CLSM analysis of nuclear fluorescence in viable cells
# Type: cell-based, human
# Conditions: 10 μM for 1 h
# Source text: The system used was a Leica TCS 4D (LaserTechnik Gmbh, Germany) scanner coupled to a Leitz DM R microscope and operating with an Ominchrome argon/krypton laser. The laser provided emission lines at 488, 568 and 647 nm with variable power. Coverslip cultures were washed briefly in PBS, mounted in inverted positions on glass slides, the coverslips being supported at the edges by a piping of petroleum jelly to prevent the cells from being compressed. The slides were examined immediately using ×100 or ×40 oil immersion objective lenses with mid-range pinhole and photomultiplier gain settings. Excitation/emission wavelengths for DRAQ5, fluorescein and rhodamine 123 were 647 nm/>665 nm, 488 nm/>515 nm and 488 nm/>590 nm respectively. Gain settings were adjusted such that the most fluorescent drug-treated sample gave pixel intensities just below saturation. The black level/offset was adjusted to give effectively zero background (<4 for pixel value) after 16× line noise filtration of images for untreated controls. […]
# Thus, FIG. 2h to k show simultaneous CLSM capture of transmission (panels h and j) and the corresponding far red/low infra-red fluorescence (panels i and […] respectively) images of viable HL60 cells exposed to either 10 μM DRAQ5 or 10 μM DRAQ5N for 1 h. • 1. […]
structure (smiles),measurement,value
CN(C)CCNc1ccc(O)c2c1C(=O)c1c(O)ccc(NCCN(C)C)c1C2=O [DRAQ5],"integrated nuclear fluorescence intensity per nucleus section, DRAQ5 relative to DRAQ5N-treated cells",approximately 10 fold
